PubChem BioAssay (NCI)
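The compound was tested at five concentrations on cells cultured in 96-well plates, with a 48-hour exposure period. Here, GI50 denotes the concentration required for 50% inhibition of growth. TGI: concentration producing complete growth inhibition.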

Key:
Test in all cases: NCI tumour cell line growth inhibition, 48 h
ACHN renal = system: ACHN renal
DU-145 prostate = system: DU-145 prostate
HT29 colon = system: HT29 colon
IGROV1 ovarian = system: IGROV1 ovarian
NCI-H226 lung = system: NCI-H226 lung
OVCAR-4 ovarian = system: OVCAR-4 ovarian
SNB-19 CNS = system: SNB-19 CNS
SNB-75 CNS = system: SNB-75 CNS
SR leukemia = system: SR leukemia
TK-10 renal = system: TK-10 renal

Row | Compound | GI50 (ACHN renal) [µM] | TGI (ACHN renal) [µM] | GI50 (DU-145 prostate) [µM] | TGI (DU-145 prostate) [µM] | GI50 (HT29 colon) [µM] | TGI (HT29 colon) [µM] | GI50 (IGROV1 ovarian) [µM] | TGI (IGROV1 ovarian) [µM] | GI50 (NCI-H226 lung) [µM] | TGI (NCI-H226 lung) [µM] | GI50 (OVCAR-4 ovarian) [µM] | TGI (OVCAR-4 ovarian) [µM] | GI50 (SNB-19 CNS) [µM] | TGI (SNB-19 CNS) [µM] | GI50 (SNB-75 CNS) [µM] | TGI (SNB-75 CNS) [µM] | GI50 (SR leukemia) [µM] | TGI (SR leukemia) [µM] | GI50 (TK-10 renal) [µM] | TGI (TK-10 renal) [µM]
1 | O=C1Nc2cc(-c3ccc(O)cc3)ccc2/C1=C/c1ccc[nH]1 | 0.0504 | 3.6 | 0.815 | > 36.4 | 0.979 | > 33.8 | 0.327 | 7.22 | 0.673 | > 100 | 0.302 | > 51.3 | 1.06 | > 100 | 2.08 | 8.35 | 0.0309 | > 33.7 | 0.418 | > 71.9
2 | CCOc1cc(CCNC)c2c(ccc3ccc(OC)c(O)c32)c1OC |  | 26.5 |  | 28.5 |  | 30.7 |  | 27.7 |  | 46.9 |  | 27.2 |  | 30.1 |  | 32.3 |  | 20.5 |  | 32.7
3 | CCN1Cc2c(/C=C/c3ccccc3)nc3ccc(OC)cc3c2N(c2cccc(Cl)c2)C1 | 1.61 | 3.08 | 1.94 | 3.47 | 1.45 | 3.03 | 1.4 | 3.68 | 1.65 | 3.5 | 2.8 | 8.44 | 2.13 | 5.15 | 1.8 | 6.1 | 1.71 | 5.53 | 1.62 | 3.43
4 | CCCCc1n(Cc2ccc3ccccc3n2)cc[n+]1Cc1ccc2ccccc2c1 | 2.89 | 8.8 | 1.44 | 7.98 | 0.592 | 2.85 | 0.731 | 2.38 | 1 | 6.12 | 0.262 | 1.63 | 0.605 | 2.12 | 0.289 | 1.74 | 0.456 | 1.95 | 1.49 | 3.69
5 | C=C(C)[C@@H]1CC[C@]2(COC(=O)c3ccccc3C(=O)O)CC[C@]3(C)[C@H](CC[C@@H]4[C@@]5(C)CC[C@H](OC(=O)c6ccccc6C(=O)O)C(C)(C)[C@@H]5CC[C@]43C)[C@@H]12 | 28 | > 100 | 32.8 | > 100 | 46 | > 100 | 33.2 | > 100 | 32 | > 100 | 36.7 | > 100 | 23.2 | > 100 | 15.4 | 36 | 27.3 | 74.1 | 24.8 | 63.3
6 | COc1ncc(-c2ccc3ncnc(Nc4cccc(Cl)c4)c3c2)cc1NS(C)(=O)=O | 0.485 | > 100 | 0.756 | 21.1 | 1.07 | 13.1 | 0.189 | 0.815 | 4.83 | 24.2 | 4.97 | 64.3 | 3.19 | 31.3 | 0.158 | 5.82 | 3.91 | > 100 | 0.183 | 1.4
7 | COc1ccc(C(=O)c2cc(C)c(OC)c(C)c2)c(OC)c1OC(=O)C(Cl)Cl | 0.0554 | > 100 | 0.0377 | 4.8 | 3.44 | > 49.8 | 0.464 | > 100 | 2.41 | 7.03 | 0.422 | > 100 | 0.0432 | > 100 | 0.031 | > 100 | 0.0181 | > 100 | 17.2 | > 100
8 | COc1ccc(/C=C\c2cc(OC)c(OC)c(OC)c2)cc1N/C=C\C(=O)c1c[nH]c2ccccc12 | < 0.01 | > 100 | < 0.01 | 0.0142 | < 0.01 | > 100 | < 0.01 | > 100 | 0.016 | > 100 | < 0.01 | > 100 | < 0.01 | > 100 | < 0.01 | > 100 | < 0.01 | > 100 | 40.2 | > 100
9 | COc1cc(NC(=O)c2cc3ccccc3cc2O)c(OC)cc1Cl | 1.81 | 5.23 | 2.67 | 8.07 | 2.89 | 19.8 | 0.0776 | 15.4 | 1.45 | 6.04 | 2.12 | 8.21 | 2.53 | 8.21 | 1.44 | 5.04 | 2.02 | 14.7 | 3.64 | 7.7
10 | Cn1c(=S)c2[nH]c(SCc3cccnc3)nc2n(C)c1=O |  | > 100 |  | > 100 |  | > 100 |  | > 100 |  | > 100 |  | > 100 |  | > 100 |  | > 100 |  | > 100 |  | > 100
11 | COC(=O)C(Br)(C(=O)OC)C(Br)C(Br)C(Br)c1ccccc1 (centres undefined) | 2.2 | 5.15 | 2.31 | 5.71 | 1.8 | 3.34 | 1.06 | 3.45 | 2.19 | 5.71 | 1.82 | 3.96 | 14.9 | 28.2 | 2.07 | 7.08 | 2.8 | 9.71 | 2.35 | 6.19
12 | CCN1C(=O)N[C@H]2[C@@H]3NC(=O)c4ccc(Cl)n4[C@@H]3C[C@]21O | 1.5 | 12.4 | 0.615 | 19.3 | 0.968 | 10.4 | 0.471 | 6.46 | 0.543 | 5.7 | 0.571 | 7.99 | 0.31 | 9.25 | 0.663 | 7.63 | 0.257 | 0.983 | 1.66 | 12.5
13 | COc1ccc(-n2nc(C(=O)NCC(=O)Nc3nc4cc(OC)ccc4s3)c3ccccc3c2=O)cc1 | 1.1 | 8.7 | 0.919 |  | 0.441 | 1.78 | 1.18 | > 25.3 | 1.48 | 7.5 | 0.434 | 2.57 | 1.84 | 6.07 | 0.554 | 2.08 | > 20.5 | > 100 | 0.389 | 1.52
14 | Clc1ccc2c(NCCNc3nc(N4CCCCC4)nc4ccccc34)ccnc2c1 | 1.79 | 3.59 | 3.24 | 12.9 | 1.58 | 4.1 | 2.54 | 9.86 | 1.92 | 4.05 | 2.81 | 13.8 | 3.06 | 15.6 | 1.78 | 7.46 | 1.23 | 4.53 | 2.15 | 5.13
15 | O=C1c2ccccc2-c2c1c1ccc3ccccc3c1n2-c1ccccc1 | 20.5 | 40.2 | 39 | > 100 | > 100 | > 100 | 29.7 | > 100 | 27.9 | 75.2 | > 100 | > 100 | 25.7 | 59.1 | 81.2 | > 100 | 41.9 | > 100 | 20.6 | 44.7
16 | Nc1n[nH]c2cc(F)c([C@@H]3Nc4c(F)cc5[nH]ncc5c4[C@H]4C5CCC(C5)[C@@H]34)cc12 (some centres undefined) | 0.188 | 11.1 | 0.157 | 7.97 | 0.119 | 5.39 | 0.13 | 5.04 | 0.141 | 1.41 | 0.566 | 33.3 | 0.134 | 14.9 | 0.0894 | 0.635 | 0.115 | 11.1 | 2.27 | 27.2
17 | COc1ccc2c(ccc3oc([N+](=O)[O-])cc32)c1 | 0.0274 | 0.232 | 0.191 | 1.14 | 0.202 | 0.874 | 0.199 | 3.47 | 0.193 | 0.629 | 0.422 | 2.01 | 0.294 | 2.96 | 0.201 | 0.573 | 0.0748 | 17.6 | 0.278 | 0.854
18 | COc1ccccc1N1CCN(CC(O)Cn2c(=O)c3c(OC)nc(C)cc3c(=O)n2-c2ccccc2)CC1 (centres undefined) | 37.9 | > 100 | > 100 | > 100 | > 100 | > 100 | 41 | > 100 | > 100 | > 100 | > 100 | > 100 | 25.5 | > 100 | 14.8 | 37.6 | > 100 | > 100 | 19.4 | 81.7
19 | CC(NNC(=S)N1CCN(c2ccccn2)CC1)c1cccc[n+]1[O-] (centres undefined) |  | > 100 |  | > 100 |  | > 100 |  | > 100 |  | > 100 |  | > 100 |  | > 100 |  | > 100 |  | 96.1 |  | > 100
